Results: US10494363B2, “Non-steroidal glucocorticoid receptor modulators for local drug delivery” (LEO PHARMA A/S, priority 2015, dated 2019)

What was measured:
[1] = molecular target: T1, glucocorticoid receptor (GR), recombinant full-length receptor protein (Homo sapiens, UniProt P04150); assay: Glucocorticoid receptor binding assay (fluorescence polarization kit); settings: 4 nM receptor, 2.5 nM Fluormone GS1 tracer, 2h room temperature, read-out: GR binding ABS IC50
T1 construct: 4 nM recombinant, full-length receptor protein was incubated with increasing concentrations of GR ligand; purchased Life Technologies A-15897
T1 sequence (P04150 1-777): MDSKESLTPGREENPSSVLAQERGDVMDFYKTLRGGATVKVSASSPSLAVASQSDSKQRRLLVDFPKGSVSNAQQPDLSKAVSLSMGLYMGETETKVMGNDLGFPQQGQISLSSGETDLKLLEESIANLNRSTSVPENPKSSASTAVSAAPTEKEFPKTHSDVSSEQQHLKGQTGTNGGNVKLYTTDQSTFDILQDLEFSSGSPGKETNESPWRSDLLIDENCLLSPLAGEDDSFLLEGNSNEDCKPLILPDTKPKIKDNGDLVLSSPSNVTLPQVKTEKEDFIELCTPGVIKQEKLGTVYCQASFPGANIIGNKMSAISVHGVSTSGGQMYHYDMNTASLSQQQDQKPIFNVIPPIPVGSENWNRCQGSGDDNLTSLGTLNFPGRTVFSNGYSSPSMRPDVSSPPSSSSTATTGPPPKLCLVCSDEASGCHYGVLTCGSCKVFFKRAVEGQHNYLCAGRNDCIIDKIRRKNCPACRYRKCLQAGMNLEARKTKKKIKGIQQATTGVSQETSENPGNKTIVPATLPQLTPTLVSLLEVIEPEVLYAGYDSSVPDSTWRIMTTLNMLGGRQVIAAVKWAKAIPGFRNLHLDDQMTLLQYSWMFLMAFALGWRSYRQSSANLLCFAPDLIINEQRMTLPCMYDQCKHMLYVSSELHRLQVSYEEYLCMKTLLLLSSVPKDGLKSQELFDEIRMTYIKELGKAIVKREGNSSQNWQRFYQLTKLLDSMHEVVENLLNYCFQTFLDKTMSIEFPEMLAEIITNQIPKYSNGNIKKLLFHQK
Description: Test compounds were diluted in DMSO over seven orders of magnitude, further diluted in assay buffer and distributed into 384-well plates. The sensitivity limit of this assay was 2-4 nM.
Data were processed by sigmoidal curve fitting.
Absolute (Abs) IC50 and Emax were determined from the curve fits.

[2] = tested on: TNF alpha release from human PBMCs; assay: Inhibition of TNF alpha release from human PBMCs; assay type: cell-based; settings: PBMC, LPS 1 μg/ml, 18 hours, AlphaLISA
Procedure, shortened: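 Fresh or thawed PBMCs in serum-free medium with 0.5% HSA, stimulated with 1 μg/ml LPS plus titrated compound for 18 h at 37° C. TNF-a in supernatant by AlphaLISA; window set with a reference PDE4 inhibitor at 100×IC50. EC50 and Emax from sigmoidal fits.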

[3] = Human liver microsomes (HLM) assay; assay type: in vitro ADME; settings: hepatic extraction ratio; 0.5 μM compound, 0.5 mg/mL microsomes, NADPH, 37° C.
Description: Incubations of test compounds in DMSO, diluted with phosphate buffer, pH 7.4, at 0.5 μM were carried out with human liver microsomes (0.5 mg/mL). The percentage of organic solvent in the incubations was 1%. The human liver microsomal suspension in phosphate buffer was mixed with NADPH (1 mM) and preheated to 37° C. before test compound was added. Aliquots were taken at 0, 5, 10, 20 and 30 minutes, and reactions were terminated by addition of methanol containing analytical internal standard (IS).
The results were expressed as apparent clearance (Clapp) (mL/min/kg) and hepatic extraction ratio (Eh) (%) calculated from the rate constant (k) (min^−1) of test compound depletion.

Structure (SMILES)	IC50 [1]	HLM assay Eh (%) [3]	EC50 [2]
C[C@H](NC(=O)C(F)(F)F)[C@H](Oc1ccc(C(=O)O[C@H]2CCCN(C(=O)[C@H]3COC(=O)C3)C2)cc1)c1ccc(C2CC2)cc1 [Compound 24, [(3S)-1-[(3R)-5-oxotetrahydrofuran-3-carbonyl]-3-piperidyl] 4-[(1R,2S)-1-(4-cyclopropylphenyl)-2-[(2,2,2-trifluoroacetyl)amino]propoxy]benzoate]	< 100 nM	* (extraction ratio (Eh)>90%)	< 100 nM
Cc1cnc(C(=O)N[C@@H](C)[C@H](Oc2ccc(C(=O)O[C@H]3CCCN(C(=O)[C@H]4COC(=O)C4)C3)cc2)c2ccc(C3CC3)cc2)s1 [Compound 26, [(3S)-1-[(3R)-5-oxotetrahydrofuran-3-carbonyl]-3-piperidyl] 4-[(1R,2S)-1-(4-cyclopropylphenyl)-2-[(5-methylthiazole-2-carbonyl)amino]propoxy]benzoate]	< 100 nM	* (extraction ratio (Eh)>90%)	< 100 nM
Cc1nonc1C(=O)N[C@@H](C)[C@H](Oc1ccc(C(=O)O[C@H]2CCCN(C(=O)[C@H]3COC(=O)C3)C2)cc1)c1ccc(C2CC2)cc1 [Compound 28, [(3S)-1-[(3R)-5-oxotetrahydrofuran-3-carbonyl]-3-piperidyl] 4-[(1R,2S)-1-(4-cyclopropylphenyl)-2-[(4-methyl-1,2,5-oxadiazole-3-carbonyl)amino]propoxy]benzoate]	< 100 nM	* (extraction ratio (Eh)>90%)	< 100 nM
Cc1scnc1C(=O)N[C@@H](C)[C@H](Oc1ccc(C(=O)O[C@H]2CCCN(C(=O)[C@H]3COC(=O)C3)C2)cc1)c1ccc(C2CC2)cc1 [Compound 29, [(3S)-1-[(3R)-5-oxotetrahydrofuran-3-carbonyl]-3-piperidyl] 4-[(1R,2S)-1-(4-cyclopropylphenyl)-2-[(5-methylthiazole-4-carbonyl)amino]propoxy]benzoate]	< 100 nM	* (extraction ratio (Eh)>90%)	< 100 nM
Cc1ncsc1C(=O)N[C@@H](C)[C@H](Oc1ccc(C(=O)O[C@H]2CCCN(C(=O)[C@H]3COC(=O)C3)C2)cc1)c1ccc(C2CC2)cc1 [Compound 30, [(3S)-1-[(3R)-5-oxotetrahydrofuran-3-carbonyl]-3-piperidyl] 4-[(1R,2S)-1-(4-cyclopropylphenyl)-2-[(4-methylthiazole-5-carbonyl)amino]propoxy]benzoate]	< 100 nM	* (extraction ratio (Eh)>90%)	100 to 300 nM
Cc1nnc(C(=O)N[C@@H](C)[C@H](Oc2ccc(C(=O)O[C@H]3CCCN(C(=O)[C@H]4COC(=O)C4)C3)cc2)c2ccc(C3CC3)cc2)o1 [Compound 31, [(3S)-1-[(3R)-5-oxotetrahydrofuran-3-carbonyl]-3-piperidyl] 4-[(1R,2S)-1-(4-cyclopropylphenyl)-2-[(5-methyl-1,3,4-oxadiazole-2-carbonyl)amino]propoxy]benzoate]	< 100 nM	* (extraction ratio (Eh)>90%)	< 100 nM
Cc1nnsc1C(=O)N[C@@H](C)[C@H](Oc1ccc(C(=O)O[C@H]2CCCN(C(=O)[C@H]3COC(=O)C3)C2)cc1)c1ccc(C2CC2)cc1 [Compound 32, [(3S)-1-[(3R)-5-oxotetrahydrofuran-3-carbonyl]-3-piperidyl] 4-[(1R,2S)-1-(4-cyclopropylphenyl)-2-[(4-methylthiadiazole-5-carbonyl)amino]propoxy]benzoate]	< 100 nM	* (extraction ratio (Eh)>90%)	< 100 nM

Further lines, with some results ahead:

IC50 [1]	HLM assay Eh (%) [3]	Structure (SMILES)	EC50 [2]
100 to 300 nM	* (extraction ratio (Eh)>90%)	C[C@H](NC(=O)C1(O)CCC1)[C@H](Oc1ccc(C(=O)N[C@H]2CCCN(C(=O)[C@H]3COC(=O)C3)C2)nc1)c1ccc(C2CC2)cc1 [Compound 17, 5-[(1R,2S)-1-(4-cyclopropylphenyl)-2-[(1-hydroxycyclobutanecarbonyl)amino]propoxy]-N-[(3S)-1-[(3R)-5-oxotetrahydrofuran-3-carbonyl]-3-piperidyl]pyridine-2-carboxamide]	< 100 nM
100 to 300 nM	* (extraction ratio (Eh)>90%)	C[C@H](NC(=O)C1(O)CC1)[C@H](Oc1ccc(C(=O)N[C@H]2CCCN(C(=O)[C@H]3COC(=O)C3)C2)nc1)c1ccc(C2CC2)cc1 [Compound 18, 5-[(1R,2S)-1-(4-cyclopropylphenyl)-2-[(1-hydroxycyclopropanecarbonyl)amino]propoxy]-N-[(3S)-1-[(3R)-5-oxotetrahydrofuran-3-carbonyl]-3-piperidyl]pyridine-2-carboxamide]	< 100 nM
< 100 nM	* (extraction ratio (Eh)>90%)	C[C@H](NC(=O)c1cocn1)[C@H](Oc1ccc(C(=O)N[C@H]2CCCN(C(=O)[C@H]3COC(=O)C3)C2)nc1)c1ccc(C2CC2)cc1 [Compound 19, N-[(1S,2R)-2-(4-cyclopropylphenyl)-1-methyl-2-[[6-[[(3S)-1-[(3R)-5-oxotetrahydrofuran-3-carbonyl]-3-piperidyl]carbamoyl]-3-pyridyl]oxy]ethyl]oxazole-4-carboxamide]	< 100 nM
100 to 300 nM	* (extraction ratio (Eh)>90%)	C[C@H](NC(=O)[C@@H]1CCCO1)[C@H](Oc1ccc(C(=O)N[C@H]2CCCN(C(=O)[C@H]3COC(=O)C3)C2)nc1)c1ccc(C2CC2)cc1 [Compound 20, 5-[(1R,2S)-1-(4-cyclopropylphenyl)-2-[[(2S)-tetrahydrofuran-2-carbonyl]amino]propoxy]-N-[(3S)-1-[(3R)-5-oxotetrahydrofuran-3-carbonyl]-3-piperidyl]pyridine-2-carboxamide]	< 100 nM
< 100 nM	* (extraction ratio (Eh)>90%)	C[C@H](NC(=O)[C@H]1CCCO1)[C@H](Oc1ccc(C(=O)N[C@H]2CCCN(C(=O)[C@H]3COC(=O)C3)C2)nc1)c1ccc(C2CC2)cc1 [Compound 22, 5-[(1R,2S)-1-(4-cyclopropylphenyl)-2-[[(2R)-tetrahydrofuran-2-carbonyl]amino]propoxy]-N-[(3S)-1-[(3R)-5-oxotetrahydrofuran-3-carbonyl]-3-piperidyl]pyridine-2-carboxamide]	< 100 nM
< 100 nM	* (extraction ratio (Eh)>90%)	C[C@H](NC(=O)c1ccon1)[C@H](Oc1ccc(C(=O)N[C@H]2CCCN(C(=O)[C@H]3COC(=O)C3)C2)nc1)c1ccc(C2CC2)cc1 [Compound 23, N-[(1S,2R)-2-(4-cyclopropylphenyl)-1-methyl-2-[[6-[[(3S)-1-[(3R)-5-oxotetrahydrofuran-3-carbonyl]-3-piperidyl]carbamoyl]-3-pyridyl]oxy]ethyl]isoxazole-3-carboxamide]	< 100 nM
< 100 nM	* (extraction ratio (Eh)>90%)	C[C@H](NC(=O)c1cnsn1)[C@H](Oc1ccc(C(=O)O[C@H]2CCCN(C(=O)[C@H]3COC(=O)C3)C2)cc1)c1ccc(C2CC2)cc1 [Compound 25, [(3S)-1-[(3R)-5-oxotetrahydrofuran-3-carbonyl]-3-piperidyl] 4-[(1R,2S)-1-(4-cyclopropylphenyl)-2-(1,2,5-thiadiazole-3-carbonylamino)propoxy]benzoate]	< 100 nM
< 100 nM	* (extraction ratio (Eh)>90%)	Cc1ncoc1C(=O)N[C@@H](C)[C@H](Oc1ccc(C(=O)O[C@H]2CCCN(C(=O)[C@H]3COC(=O)C3)C2)cc1)c1ccc(C2CC2)cc1 [Compound 33, [(3S)-1-[(3R)-5-oxotetrahydrofuran-3-carbonyl]-3-piperidyl] 4-[(1R,2S)-1-(4-cyclopropylphenyl)-2-[(4-methyloxazole-5-carbonyl)amino]propoxy]benzoate]	100 to 300 nM
